Reference: ChEMBL document CHEMBL3137667, “[Drug-induced liver injury; fourteenth updated edition of the bibliographic database of liver injuries and related drugs]” (Gastroenterol Clin Biol, 2004)

Assays:
[1] = human
[2] = human; remark: listed apart in the source
[3] = human; remark: listed apart in the source
[4] = human, serum, 4383 h
[5] = human; remark: listed apart in the source
[6] = human; remark: listed apart in the source
[7] = Times to onset, minimal and maximal, observed in the indexed observations. [column 'DELAI' in source]; settings: human
[8] = human, serum
[9] = Proposed mechanism(s) of liver damage. [column 'MEC' in source]; settings: human
[10] = human; remark: listed apart in the source
[11] = human; remark: listed apart in the source
[12] = Comments (NB not yet translated). [column 'COMMENTAIRES' in source]; settings: human
[13] = human; remark: listed apart in the source
[14] = human; remark: listed apart in the source
[15] = Highest frequency of moderate liver toxicity observed during clinical trials, expressed as a percentage. [column '% BIOL' in source]; settings: human
[16] = Highest frequency of acute liver toxicity observed during clinical trials, expressed as a percentage. [column '% AIGUE' in source]; settings: human
[17] = human, serum; remark: listed apart in the source
[18] = human; remark: listed apart in the source
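Wherever Hepatotoxicity (association with vascular disease) is given: count of indexed literature references reporting vascular liver injury in humans, e.g. peliosis hepatitis, hepatic veno-occlusive disease or Budd-Chiari syndrome.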
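Wherever Hepatotoxicity (benign tumour) is given: value is a count of indexed literature references citing a benign tumour confirmed by histopathology.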
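Wherever Hepatotoxicity (choleostasis) is given: human cholestatic liver injury, shown by histopathology or by peak ALT or AST elevation over alkaline phosphatase ratio below 2, value counts indexed literature reports.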
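Wherever Hepatotoxicity (chronic liver disease) is given: chronic liver injury confirmed by histopathology or persistently raised serum aminotransferase activity beyond 6 months, value given as the count of indexed literature references.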
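Wherever Hepatotoxicity (cirrhosis) is given: value is a count of indexed literature references reporting cirrhosis confirmed by histopathology.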
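Wherever Hepatotoxicity (cytolytic) is given: human cytolytic liver injury, shown by histopathology or by a ratio above 5 of peak ALT or AST elevation to alkaline phosphatase elevation, value counts indexed references.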
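Wherever Hepatotoxicity (granulomatous hepatitis) is given: value is a count of indexed literature references reporting granulomatous liver disease confirmed by histopathology.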
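Wherever Hepatotoxicity (malignant tumour) is given: malignant tumour confirmed by histopathology, value gives the count of indexed literature references reporting it.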
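Wherever Hepatotoxicity (severe hepatitis) is given: human clinical data: severe hepatitis, meaning potentially life-threatening liver failure or clinically observed cases, the value counts how many indexed literature references report it.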
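Wherever Hepatotoxicity (steatosis) is given: steatosis confirmed by histopathology, value is the count of indexed references.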

SMILES | Hepatotoxicity (malignant tumour) [1] | Hepatotoxicity (cytolytic) [2] | Hepatotoxicity (chronic liver disease) [4] | Hepatotoxicity (benign tumour) [5] | Hepatotoxicity (association with vascular disease) [6] | Hepatotoxicity (time to onset) [7] | Hepatotoxicity (acute) [8] | Hepatotoxicity (mechanism) [9] | Hepatotoxicity (granulomatous hepatitis) [10] | Hepatotoxicity (animal toxicity known) [11] | Hepatotoxicity (comment) [12] | Hepatotoxicity (steatosis) [13] | Hepatotoxicity (choleostasis) [14] | Hepatotoxicity (moderate) [17] | Hepatotoxicity (cirrhosis) [18] | Hepatotoxicity (severe hepatitis) [3] | Hepatotoxicity (moderate) [15] | Hepatotoxicity (acute) [16] | other results
O=C(O)c1cn(C2CC2)c2cc(N3CCNCC3)c(F)cc2c1=O [CIPROFLOXACIN] | 0 | 7 | 1 | 0 | 0 | 2 days - 6 months | 21 | Allergic, Dose-dependant | 0 | yes | DUCTOPENIE AC_ANTI-N/-ADN | 1 | 12 | 114 | 0 |  |  |  | Hepatotoxicity (severe hepatitis) ([3]; Liver): 5; Hepatotoxicity (moderate) ([15]; Liver): 46.4%; Hepatotoxicity (acute) ([16]; Liver): 0.2%
CN(C)CCCN1c2ccccc2CCc2ccc(Cl)cc21 [CLOMIPRAMINE] | 0 | 3 | 0 | 0 | 0 | 1 week - 4 years | 6 | Allergic | 0 | yes | RC/AMINEPTINE | 0 | 2 | 11 | 0 | 0 | 10.7% | 0% | 
CC(=O)[C@@]1(O)CC[C@H]2[C@@H]3C=C(Cl)C4=CC(=O)[C@@H]5C[C@@H]5[C@]4(C)[C@H]3CC[C@@]21C [CYPROTERONE] | 5 | 20 | 1 | 1 | 0 | 4 days - 10 years | 21 | Dose-dependant | 0 | yes | AC_ANTI-N/pCN | 0 | 3 | 4 | 1 | 13 | 20% | 13% | 
O=c1[nH]cc(F)c(=O)[nH]1 [FLUOROURACIL] | 0 | 2 | 0 | 0 | 1 | 1 month - 1 year | 4 | Dose-dependant, Toxic Metabolite | 0 | yes | CHOLANGITE/IAH I/LEVAMISOLE | 4 | 1 | 15 | 1 | 2 | 61.2% | 25% | 
C=COCC(F)(F)F [FLUROXENE] | 0 | 3 | 0 | 0 | 0 | 1 day - 5 days | 4 | Toxic Metabolite | 0 | yes | I/PHENOBARBITAL/PHENYTOINE | 0 | 0 | 2 | 0 | 2 | 30.4% | 0% | 
CC1(C)S[C@@H]2[C@H](NC(=O)Cc3ccccc3)C(=O)N2[C@H]1C(=O)O [PENICILLIN G] | 0 | 5 | 1 | 0 | 0 | 0.5 hour - 18 days | 17 | Allergic | 3 | yes | CHOLESTASE_PROLONGEE CHOLANGITE AC_ANTI-N | 0 | 9 | 9 | 0 | 1 | 13.2% | 0% | 
CC1=C(/C=C/C(C)=C/C=C/C(C)=C/CO)C(C)(C)CCC1 [RETINOL] | 0 |  | 26 | 0 | 10 | 11 days - 17.5 years | 0 |  |  | yes | I/ALCOOL | 22 |  | 8 | 22 |  |  |  | Hepatotoxicity (cytolytic) ([2]; Liver): 0; Hepatotoxicity (severe hepatitis) ([3]; Liver): 1; Hepatotoxicity (mechanism) ([9]; Liver): Dose-dependant; Hepatotoxicity (granulomatous hepatitis) ([10]; Liver): 0; Hepatotoxicity (choleostasis) ([14]; Liver): 0; Hepatotoxicity (moderate) ([15]; Liver): 33%; Hepatotoxicity (acute) ([16]; Liver): 0%
CC(=O)N[C@H]1[C@@H](O[C@H]2[C@H](O)[C@@H](O)[C@H](O[C@H]3[C@H](CS(=O)(=O)O)[C@@H](OS(=O)(=O)O)[C@@H](O[C@H]4[C@H](O)[C@@H](OS(=O)(=O)O)C(O)O[C@H]4C(=O)O)O[C@@H]3O)O[C@@H]2C(=O)O)O[C@H](COS(=O)(=O)O)[C@@H](O)[C@@H]1O (some centres not stated) [SODIUM HEPARIN] | 0 | 3 | 0 | 0 | 0 | 2 days - 2 weeks | 4 | Dose-dependant | 0 | yes | RUPTURE_HEPATIQUE | 0 | 1 | 20 | 0 | 1 | 90% | 0% | 
CN(C/C=C/C#CC(C)(C)C)Cc1cccc2ccccc12 [TERBINAFINE] | 0 | 7 | 1 | 0 | 1 | 1 week - 6 months | 23 | Reactive metabolite | 0 | yes | CHOLANGITE DUCTOPENIE CHOLESTASE_PROLONGEE | 0 | 15 | 21 | 0 | 3 | 36.7% | 0% | 
